Key:
[1] = test system: adult patients with early type 2 diabetes mellitus and increased CV risk or established complications; experiment: Cardiovascular Safety Trial (linagliptin versus glimepiride); assay type: in vivo
Experimental: The effect of linagliptin on cardiovascular risk in adult patients with early type 2 diabetes mellitus and increased CV risk or established complications was evaluated in this Cardiovascular Safety Trial, a multi-center, multi-national, randomized, double-blind parallel group trial. The trial compared the risk of experiencing a major adverse cardiovascular event (MACE) between linagliptin and glimepiride when these were added to standard of care (including background therapy with metformin) based on regional standards for HbA1c and CV risk factors. The trial was event driven and patients were followed until at least 631 primary outcome events accrued.
A total of 6033 patients were treated (linagliptin 5 mg=3023; glimepiride 1 mg to 4 mg=3010) and followed for a median of 6.25 years (median time on treatment 5.9 years). Approximately 73% of the study population was Caucasian, 18% was Asian, and 5% was Black. The mean age was 64 years and 60% were male.
At baseline, disease characteristics were balanced. […] The trial population included 2030 (34%) patients ≥70 years of age, 2089 (35%) patients with cardiovascular disease, and 1130 (19%) patients with renal impairment with an eGFR <60 mL/min/1.73 m2 at baseline. Overall, the previous use of diabetes medications was balanced across treatment groups (metformin 83% continued as background therapy, sulfonylurea 28% discontinued prior to randomization), patients on insulin were excluded. The use of medications to reduce cardiovascular risk was also balanced (aspirin 47%, statins 65%, ACE inhibitors or ARBs 74%, beta blockers 39%, and calcium channel blockers 30%).
The primary endpoint in this Cardiovascular Safety Trial was the time to first occurrence of three point (3P) MACE. A major adverse cardiac event was defined as a cardiovascular death or a nonfatal myocardial infarction (MI) or a nonfatal stroke. The statistical analysis plan tested for non-inferiority for the occurrence of 3P MACE. The key secondary endpoint evaluated the composite of treatment sustainability defined as the proportion of patients on study treatment, that maintain glycemic control (HbA1c≤7.0%) without need for additional antidiabetic drug therapy (rescue medication), without any moderate (symptomatic with glucose value <70 mg/dL) or severe (requiring assistance) hypoglycemic episodes, and without >2% weight gain from baseline.
Cardiovascular Outcome Trial of Linagliptin Versus Glimepriride in Type 2 Diabetes—assessing long-term cardiovascular impact of linagliptin versus the sulphonylurea glimepiride in subjects with early type 2 diabetes and increased cardiovascular risk or established complications. […]
Type 2 diabetes patient with insufficient glycemic control (naïve or currently treated (mono or dual therapy) with e.g. metformin and/or an alpha-glucosidase inhibitor (e.g. having HbA1c 6.5-8.5%), or currently treated (mono or dual therapy) with e.g. a sulphonylurea or glinide, with or without metformin or an alpha-glucosidase inhibitor (e.g. having HbA1c 6.5-7.5%)) and increased or high risk of cardiovascular events, e.g. defined as one or more of risk factors A), B), C) and D) indicated below, are randomized* and treated over a lengthy period (e.g. up to 432 weeks) with linagliptin (5 mg, q.d., optionally in combination with one or more other active substances, e.g. such as added to existing antidiabetic background) and compared with patients treated with the sulphonylurea glimepiride (1-4 mg once daily). * Upon randomization, if a patient is on a SU or glinide, this secretagogue therapy is discontinued and replaced with study medication. For patients not on a secretagogue, study medication is added to the existing regimen.
Time to first occurrence of any of the following adjudicated components of the primary composite endpoint: […]

patients with T2D = details: compared to placebo; cited from earlier work
[2] = baseline to Final Visit, all observed cases
[3] = baseline to Final Visit, observed cases including values after rescue medication
[4] = both, human, in vivo, 5.9 years
[5] = both, human, in vivo, 6.25 years
[6] = component of secondary composite
[7] = from end of titration (16 weeks) to final visit
[8] = median follow-up 6.25 years, listed as glimepiride

CCC1=C(C)CN(C(=O)NCCc2ccc(S(=O)(=O)NC(=O)N[C@H]3CC[C@H](C)CC3)cc2)C1=O [Glimepiride]
patients with macroalbuminuria (>300 mg/g) ([1]; at Final Visit): 1.4% | patients with microalbuminuria (≥30 to ≤300 mg/g) ([1]; at Final Visit): 16.0% | patients with normal UACR (<30 mg/g) ([1]; at baseline and at Final Visit): 57.7% | FPG, Change from baseline, adjusted mean [1, 2]: 19.7 mg/dL | HBA1c, Change from baseline, adjusted mean [1, 2]: 0.15% | Creatinine, Change from baseline, adjusted mean [1, 3]: 0.09 mg/dL | HDL, Change from baseline, adjusted mean [1, 3]: 0.3 mg/dL | LDL, Change from baseline, adjusted mean [1, 3]: -6.5 mg/dL | Total cholesterol, Change from baseline, adjusted mean [1, 3]: -5.0 mg/dL | Triglyceride, Change from baseline, adjusted mean [1, 3]: 5.2 mg/dL | Urinary albumin, Change from baseline, adjusted mean [1, 3]: 45.2 mg/dL | third key secondary endpoint of treatment sustainability (on medication, HbA1c≤7.0%, no rescue, no >2% weight gain), responders ([1]; between Visit 6 and Final Visit): 14.1% | Hospitalization for heart failure (HHF), Incidence Rate per 1000 PY ([1]; both, human, in vivo): 5.3 per 1000 PY | Hospitalization for heart failure (HHF), Number of Subjects ([1]; both, human, in vivo): 92 | Patients with any moderate/severe hypoglycemic episodes, Number of Subjects ([1]; both, human, in vivo): 791 | Patients with any moderate/severe hypoglycemic episodes, Subjects (%) ([1]; both, human, in vivo): 27.5% | Secondary CV composite (4P-MACE), Incidence Rate per 1000 PY ([1]; both, human, in vivo): 23.7 per 1000 PY | rate of moderate or severe hypoglycemia [1, 4]: 30.9% | severe hypoglycemia (requiring assistance) [1, 4]: 2.2% | Hospitalization for heart failure (HHF), Subjects (%) [1, 5]: 3.1% | Premature discontinuation from trial medication due to adverse events [1, 5]: 17.4% | Primary CV composite (3P-MACE), Incidence Rate per 1000 PY [1, 5]: 21.2 per 1000 PY | all-cause mortality, incidence rate per 1000 years at risk [1, 5]: 18.4 per 1000 years at risk | any adjudicated event (secondary CV endpoint), % of patients [1, 5]: 17.8% | hospitalisation for heart failure combined with CV death, incidence rate per 1000 years at risk [1, 5]: 13.4 per 1000 years at risk | hospitalisation for heart failure, incidence rate per 1000 years at risk [1, 5]: 5.3 per 1000 years at risk | investigator-reported heart failure AEs, % of patients [1, 5]: 5.2% | investigator-reported heart failure AEs, incidence rate per 1000 years at risk [1, 5]: 9.0 per 1000 years at risk | non-CV death, % of patients [1, 5]: 5.6% | non-CV death, incidence rate per 1000 years at risk [1, 5]: 9.2 per 1000 years at risk | proportion of patients with CV death contributing to the 3P-MACE [1, 5]: 4.2% | proportion of patients with CV death contributing to the 4P-MACE [1, 5]: 4.1% | proportion of patients with hospitalisation for unstable angina pectoris contributing to the 4P-MACE [1, 5]: 1.8% | proportion of patients with non-fatal MI contributing to the 3P-MACE [1, 5]: 4.6% | proportion of patients with non-fatal MI contributing to the 4P-MACE [1, 5]: 4.3% | proportion of patients with non-fatal stroke contributing to the 3P-MACE [1, 5]: 3.4% | proportion of patients with non-fatal stroke contributing to the 4P-MACE [1, 5]: 3.3% | Patients with maintained glycemic control (HbA1c ≤7.0%), Number of Subjects [1, 6]: 554 | Patients with maintained glycemic control (HbA1c ≤7.0%), Subjects (%) [1, 6]: 18.5% | Patients with ≤2% weight gain, Number of Subjects [1, 6]: 699 | Patients with ≤2% weight gain, Subjects (%) [1, 6]: 23.3% | Secondary composite of treatment sustainability (on treatment, HbA1c ≤7.0%, no rescue, no moderate/severe hypoglycemic episodes, no >2% weight gain), Number of Subjects [1, 7]: 305 | Secondary composite of treatment sustainability (second key secondary endpoint), Subjects (%) [1, 7]: 10.2% | first intake of rescue medication, incidence rate per 1000 years at risk ([1]; in vivo): 115.5 per 1000 years at risk | rate of patients who used rescue medication ([1]; in vivo): 47.1% | All-cause mortality, Incidence Rate per 1000 PY ([1]; median follow-up 6.25 years): 18.4 per 1000 PY | All-cause mortality, Number of Subjects ([1]; median follow-up 6.25 years): 336 | All-cause mortality, Subjects (%) ([1]; median follow-up 6.25 years): (11.2) % | HHF or CV death, Incidence Rate per 1000 PY ([1]; median follow-up 6.25 years): 13.4 per 1000 PY | HHF or CV death, Number of Subjects ([1]; median follow-up 6.25 years): 234 | HHF or CV death, Subjects (%) ([1]; median follow-up 6.25 years): (7.8) % | Secondary CV composite (cardiovascular death, non-fatal MI, non-fatal stroke and hospitalization for unstable angina; 4P-MACE), Number of Subjects ([1]; median follow-up 6.25 years): 401 | Primary CV composite (cardiovascular death, non-fatal MI, non-fatal stroke; 3P-MACE), Number of Subjects ([1]; median follow-up 6.25 years, added to standard of care): 362 | All-cause mortality, Subjects (%) [1, 8]: 12.3% | HHF or CV death, Subjects (%) [1, 8]: 7.8% | weight change (in words) ([1]; over time): initial numerical weight increase

N#C[C@@H]1C[C@@H]2C[C@@H]2N1C(=O)[C@@H](N)C12CC3CC(CC(O)(C3)C1)C2 [saxagliptin]
effect on major adverse CV event (MACE) outcomes (in words) (patients with T2D): neutral effect

Cn1c(=O)cc(N2CCC[C@@H](N)C2)n(Cc2ccccc2C#N)c1=O [alogliptin]
effect on major adverse CV event (MACE) outcomes (in words) (patients with T2D): neutral effect

N[C@@H](CC(=O)N1CCn2c(nnc2C(F)(F)F)C1)Cc1cc(F)c(F)cc1F [sitagliptin]
effect on major adverse CV event (MACE) outcomes (in words) (patients with T2D): neutral effect

Source: patent US20240398818A1, “Cardiosafe Antidiabetic Therapy” (priority 2018, published 2024)
